According to patent publication US10167269B2, “Cockroach attraction-aggregation substance, cockroach aggregation attractant and cockroach controlling agent” (Kyoto University, priority 2013, dated 2019):

Test system: cockroaches
Experiment: biological test using the linear track olfactometer (attraction-aggregation activity)
Type: in vivo, American cockroaches
Excerpt: The method for determining the activity of the cockroach attraction-aggregation substance is not particularly limited herein, and the activity may be determined by, for example, a biological test using a linear track olfactometer (FIG. 1).
An olfactometer (linear track olfactometer) is typically an instrument used to conduct bioassays to observe the response of insects to volatiles. The instrument has a bifurcation at which air flow containing an attractant substance attracts the insect subjects (see, e.g., J. Jpn. For. Soc., 89(2), 2007, “An Olfactometer Testing the Olfactory Response of the Japanese Horntail Urocerus japonicus to Volatiles.”, 135-137, and Nogyo Kankyo Kenkyu Sosho, Vol. 17, “Nogyo Seitaikei no Hozen ni Muketa Seibutsu Kino no Katsuyo”, 108-134).
A biological test with a linear track olfactometer will be specifically described below. In FIG. 1, air suction from the top 1 of the central tube allows air to enter from the tops (2a and 2b) of the right and left tubes, thereby air flows are generated from the both sides, flowing through the horizontal tube toward the top of the central tube. The left tube is the control side, and the right tube is the sample side. Insect subjects (7 to 10 day-old larvae) are placed at the bottom 4 of the central tube. Air is then slowly suctioned from the top of the central tube with a pump (2.5 L/min). The insect subjects are allowed to freely move for 5 minutes at 25±1° C. at a relative humidity of 40 to 60% in total darkness. The numbers of the insect subjects that have moved to the control side and to the sample side are counted. The excess proportion index (EPI) is calculated by the following equation: EPI=(NS−NC)/(NS+NC) (where NS is the number of the insect subjects that have moved to the sample side; and NC is the number of the insect subjects that have moved to the control side).
An EPI closer to 1 indicates higher attraction-aggregation activity on cockroaches.
In the examples, the attraction-aggregation activity on cockroaches was determined by a biological test using the above-described linear track olfactometer (FIG. 1).

[1] = Test Examples 2 and 3, doses ranging from 10^-3 pg to 10^3 pg
[2] = Test Example 5, compounds isolated from frass in Example 24
[3] = Test Examples 1 and 4, doses ranging from 10^-3 pg to 10^6 pg, 7 to 10 day-old larvae, 5 minutes

For `Cc1ccc2c(c1O)C(=O)OC(C)C2` (stereo not drawn) [step 1-4 of Example 1, 3,4-dihydro-8-hydroxy-3,7-dimethyl-1H-2-benzopyran-1-one], the “attraction-aggregation activity on cockroaches” value (from here on “attraction-aggregation activity”) [1] was “high attraction-aggregation activity”.

`Cc1ccc2c(c1O)C(=O)O[C@@H](C)[C@H]2C` (relative stereo) [PLD-B, (cis)-3,4-dihydro-8-hydroxy-3,4,7-trimethyl-1H-2-benzopyran-1-one] was tested, and the “attraction-aggregation activity” value [2] was “high attraction-aggregation activity”.

In the case of `CCC(C)C1Cc2c(C)cc(C)c(O)c2C(=O)O1` (stereo not drawn) [PLD-E, 3,4-dihydro-8-hydroxy-3-(1-methylpropyl)-5,7-dimethyl-1H-2-benzopyran-1-one], the “attraction-aggregation activity” value [2] is reported as “high attraction-aggregation activity”.

For `CC[C@H]1OC(=O)c2c(ccc(C)c2O)[C@@H]1C` (relative stereo) [PLD-C, (trans)-3,4-dihydro-8-hydroxy-4,7-dimethyl-3-ethyl-1H-2-benzopyran-1-one], the “attraction-aggregation activity” value [2] was “high attraction-aggregation activity”.

`CCC1Cc2c(C)cc(C)c(O)c2C(=O)O1` (stereo not drawn) [Example 4, 3,4-dihydro-8-hydroxy-3-ethyl-5,7-dimethyl-1H-2-benzopyran-1-one] was tested, and the “attraction-aggregation activity” value [1] was “high attraction-aggregation activity”.

For `CCC1Cc2ccc(C)c(O)c2C(=O)O1` (stereo not drawn) [Example 3, 3,4-dihydro-8-hydroxy-3-ethyl-7-methyl-1H-2-benzopyran-1-one], the “attraction-aggregation activity” value [1] was “high attraction-aggregation activity”.

In the case of `CC[C@@H]1OC(=O)c2c(ccc(C)c2O)[C@@H]1C` (relative stereo) [PLD-D, (cis)-3,4-dihydro-8-hydroxy-4,7-dimethyl-3-ethyl-1H-2-benzopyran-1-one], the “attraction-aggregation activity” value [2] is reported as “high attraction-aggregation activity”.

`CC1Cc2cccc(O)c2C(=O)O1` (stereo not drawn) [Example 23, mellein] was tested, and the “attraction-aggregation activity” value [3] was “high attraction-aggregation activity”.

In the case of `Cc1ccc2c(c1O)C(=O)OC2` [Example 18, 7-hydroxy-6-methyl-1(3H)-isobenzofuranone], the “attraction-aggregation activity” value [3] is reported as “showed attraction-aggregation activity”.

With `CCC1Cc2cc(C)c(C)c(O)c2C(=O)O1` (stereo not drawn) [Example 5, 3,4-dihydro-8-hydroxy-3-ethyl-6,7-dimethyl-1H-2-benzopyran-1-one] the EPI value (Test Example 1, dose 10^2 pg, EPI=(NS-NC)/(NS+NC)) was “about 0.5” and the “attraction-aggregation activity” value [3] was “high attraction-aggregation activity”.

With `CCC1Cc2cc(C)c(C)c(OC)c2C(=O)O1` (stereo not drawn) [Comparative Example 1, reference compound] the “attraction-aggregation activity” value (Test Example 1, even at a dose of 10^6 pg) was “no activity”.

For `Cc1ccc2c(c1O)C(=O)OC1CCCC21` (stereo not drawn) [Example 17, 2,3,3a,9b-tetrahydro-6-hydroxy-7-methyl-cyclopenta[c][2]benzopyran-5(1H)-one], the “attraction-aggregation activity” value [3] was “showed attraction-aggregation activity”.

With `CCCC(C)C1Cc2c(C)cc(C)c(O)c2C(=O)O1` (stereo not drawn) [PLD-F, 3,4-dihydro-8-hydroxy-3-(1-methylbutyl)-5,7-dimethyl-1H-2-benzopyran-1-one] the “attraction-aggregation activity” value [2] was “high attraction-aggregation activity”.

For `Cc1ccc2c(c1O)C(=O)O[C@H](C)[C@H]2C` (relative stereo) [PLD-A, (trans)-3,4-dihydro-8-hydroxy-3,4,7-trimethyl-1H-2-benzopyran-1-one], the “attraction-aggregation activity” value [2] was “high attraction-aggregation activity”.
